The text below walks through data of patent US12227490B2, “Cereblon binding compounds, compositions thereof, and methods of treatment therewith” (Celgene Corporation, priority 2020, dated 2025).

The target of the experiment is T1, AR (androgen receptor) protein in VCaP cells (Homo sapiens, UniProt P10275).
T1 construct: endogenous in cells; host or cells: VCaP cells
T1 sequence (P10275 1-920): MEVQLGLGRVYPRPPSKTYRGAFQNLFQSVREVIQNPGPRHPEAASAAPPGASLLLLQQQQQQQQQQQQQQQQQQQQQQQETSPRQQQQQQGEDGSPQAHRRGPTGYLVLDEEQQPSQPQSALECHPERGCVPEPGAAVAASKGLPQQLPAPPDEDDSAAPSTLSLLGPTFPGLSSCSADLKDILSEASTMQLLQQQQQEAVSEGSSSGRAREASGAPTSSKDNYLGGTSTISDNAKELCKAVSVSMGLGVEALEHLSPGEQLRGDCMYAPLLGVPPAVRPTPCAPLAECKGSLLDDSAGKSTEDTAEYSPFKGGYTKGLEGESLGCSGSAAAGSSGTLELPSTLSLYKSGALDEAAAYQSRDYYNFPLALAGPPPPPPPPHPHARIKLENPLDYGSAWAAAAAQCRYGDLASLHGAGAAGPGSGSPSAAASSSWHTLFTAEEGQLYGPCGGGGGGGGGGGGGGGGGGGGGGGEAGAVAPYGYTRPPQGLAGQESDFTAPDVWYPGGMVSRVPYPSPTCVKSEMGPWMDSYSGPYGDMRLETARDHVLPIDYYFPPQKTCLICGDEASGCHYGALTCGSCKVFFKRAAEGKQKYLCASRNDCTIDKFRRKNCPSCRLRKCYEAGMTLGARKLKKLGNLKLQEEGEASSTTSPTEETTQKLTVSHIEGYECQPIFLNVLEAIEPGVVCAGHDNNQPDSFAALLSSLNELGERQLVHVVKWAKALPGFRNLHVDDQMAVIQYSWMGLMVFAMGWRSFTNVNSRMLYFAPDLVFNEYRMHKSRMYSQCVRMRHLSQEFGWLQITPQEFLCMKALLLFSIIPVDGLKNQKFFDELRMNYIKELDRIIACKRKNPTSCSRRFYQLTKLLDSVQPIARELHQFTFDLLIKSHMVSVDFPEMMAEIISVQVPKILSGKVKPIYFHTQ
The experiment can be described thus: VCAP AR Degradation Assay. It is filed as cell-based. To be noted: 24 h, AR ELISA; for DC50: concentration of compound when AR level = 50% of DMSO control; for remaining activity at up to 5 µM: top concentration 5 μM, read-out: Y (lowest measured AR level normalized to DMSO control, AR degradation efficiency). How it is done: VCAP AR Degradation Assay. Test compounds were pre-dispensed into a Corning CellBind 96-well clear bottom plate (Cat #3300) using an acoustic dispenser to make a 10-point concentration series at 1:3 dilution for each compound. The final top concentration of each compound was 5 μM. DMSO at a final concentration of 0.1% was used as a control. VCaP cells cultured in DMEM with 8% fetal bovine serum (FBS) were seeded at 50K cells per well in a 200 μL volume into the compound plate and incubated at 37° C. in a CO2 incubator for 24 h. The medium was carefully removed from the cells and the plate was placed on ice. One hundred μL of ice-cold 1× cell lysis buffer from Cell Signaling Technologies (Cat #9803) was added to each well of the cells and the plate was incubated at 4° C. on a shaker for 1 h. Fifteen μL of cell lysate was used for AR ELISA detection using a PathScan Total Sandwich AR ELISA kit (Cell Signaling Technology, Cat #12580). AR levels in compound-treated wells were normalized to that of DMSO control and expressed as percent of control (PoC) (y). A Four Parameter Logistic Model (Sigmoidal Dose-Response Model) was used to determine the compound's DC50, and EC50, using the following equation: y=(A+((B−A)/(1+((C/x)^D)))) • A=YMin (lowest AR level normalized to DMSO control in response to compound treatment, as determined by curve fit) • B=YMax (maximum AR level as determined by curve fit) • C=EC50 • D=Hill Slope • x=compound concentration • EC50=the concentration of compound when y=(YMax−YMin)/2 • DC50=the concentration of the compound when y=50% of DMSO control (50% AR degradation) • y=AR protein level normalized to DMSO control
The lowest measured AR level normalized to DMSO control in response to compound treatment, termed Y value, was used to characterize the compound-mediated AR degradation efficiency.
For orientation: In an ELISA, binding on a coated surface is turned into a signal by an enzyme label.

The structures appear in SMILES notation. Counter-ions that a name gives are not always drawn.

For `C[C@@H]1CN(CCCC[C@H]2CC[C@H](N3C(=S)N(c4ccc(C#N)c(C(F)(F)F)c4)C(=O)C3(C)C)CC2)C[C@H](C)N1CC(=O)Nc1cccc2c(C3CCC(=O)NC3=O)nn(C)c12` (stereo partly drawn) [Cmpd 19, 2-((2S,6R)-4-(4-((trans)-4-(3-(4-Cyano-3-(trifluoromethyl)phenyl)-5,5-dimethyl-4-oxo-2-thioxoimidazolidin-1-yl)cyclohexyl)butyl)-2,6-dimethylpiperazin-1-yl)-N-(3-(2,6-dioxopiperidin-3-yl)-1-methyl-1H-indazol-7-yl)acetamide], the DC50 (in general, the concentration giving 50% degradation) is 2 to 5 nM and the remaining activity at up to 5 µM lay in the range of 0 to 25%.

For `Cn1nc(C2CCC(=O)NC2=O)c2cccc(NC(=O)CN3CCN(CCO[C@H]4CC[C@H](N5C(=S)N(c6cnc(C#N)c(C(F)(F)F)c6)C(=O)C5(C)C)CC4)C[C@@H]3C(F)(F)F)c21` (stereo partly drawn) [Cmpd 22, 2-((R)-4-(2-(((trans)-4-(3-(6-Cyano-5-(trifluoromethyl)pyridin-3-yl)-5,5-dimethyl-4-oxo-2-thioxoimidazolidin-1-yl)cyclohexyl)oxy)ethyl)-2-(trifluoromethyl)piperazin-1-yl)-N-(3-(2,6-dioxopiperidin-3-yl)-1-methyl-1H-indazol-7-yl)acetamide], the DC50 was less than 2 nM and the remaining activity at up to 5 µM was 0 to 25%.

In the case of `C[C@@H]1C[C@H](OCC[C@H]2CC[C@H](N3C(=S)N(c4ccc(C#N)c(C(F)(F)F)c4)C(=O)C3(C)C)CC2)C[C@H](C)N1CC(=O)Nc1cccc2c(C3CCC(=O)NC3=O)nn(C)c12` (stereo partly drawn) [Cmpd 26, 2-((2R,4r,6S)-4-(2-((trans)-4-(3-(4-Cyano-3-(trifluoromethyl)phenyl)-5,5-dimethyl-4-oxo-2-thioxoimidazolidin-1-yl)cyclohexyl)ethoxy)-2,6-dimethylpiperidin-1-yl)-N-(3-(2,6-dioxopiperidin-3-yl)-1-methyl-1H-indazol-7-yl)acetamide], the DC50 was in the range of 5 to 20 nM and the remaining activity at up to 5 µM was 0 to 25%.

As for `C[C@@H]1CN(CCC[C@H]2CC[C@H](N3C(=S)N(c4cnc(C#N)c(C(F)(F)F)c4)C(=O)C3(C)C)CC2)C[C@H](C)N1CC(=O)Nc1cccc2c(C3CCC(=O)NC3=O)nn(C)c12` (stereo partly drawn) [Cmpd 9, 2-((2R,6S)-4-(3-(trans-4-(3-(6-Cyano-5-(trifluoromethyl)pyridin-3-yl)-5,5-dimethyl-4-oxo-2-thioxoimidazolidin-1-yl)cyclohexyl)propyl)-2,6-dimethylpiperazin-1-yl)-N-(3-(2,6-dioxopiperidin-3-yl)-1-methyl-1H-indazol-7-yl)acetamide], the DC50 is 2 to 5 nM and the remaining activity at up to 5 µM lay within 25 to 30%.

For `C[C@@H]1CN(CCC[C@H]2CC[C@H](N3C(=S)N(c4ccc(C#N)c(Cl)c4)C(=O)C3(C)C)CC2)C[C@H](C)N1CC(=O)Nc1cccc2c(C3CCC(=O)NC3=O)nn(C)c12` (stereo partly drawn) [Cmpd 11, 2-((2S,6R)-4-(3-(trans-4-(3-(3-Chloro-4-cyanophenyl)-5,5-dimethyl-4-oxo-2-thioxoimidazolidin-1-yl)cyclohexyl)propyl)-2,6-dimethylpiperazin-1-yl)-N-(3-(2,6-dioxopiperidin-3-yl)-1-methyl-1H-indazol-7-yl)acetamide], the DC50 lay within 5 to 20 nM and the remaining activity at up to 5 µM fell in the range of 30 to 50%.

Turning to `C[C@@H]1C[C@H](OCCC[C@H]2CC[C@H](N3C(=S)N(c4ccc(C#N)c(C(F)(F)F)c4)C(=O)C3(C)C)CC2)C[C@H](C)N1CC(=O)Nc1cccc2c(C3CCC(=O)NC3=O)nn(C)c12` (stereo partly drawn) [Cmpd 23, 2-((2R,4r,6S)-4-(3-((trans)-4-(3-(4-Cyano-3-(trifluoromethyl)phenyl)-5,5-dimethyl-4-oxo-2-thioxoimidazolidin-1-yl)cyclohexyl)propoxy)-2,6-dimethylpiperidin-1-yl)-N-(3-(2,6-dioxopiperidin-3-yl)-1-methyl-1H-indazol-7-yl)acetamide], the DC50 is 20 to 100 nM and the remaining activity at up to 5 µM lay in the range of 0 to 25%.

For `Cn1nc(C2CCC(=O)NC2=O)c2cccc(NC(=O)CN3CCN(CCO[C@H]4CC[C@H](N5C(=S)N(c6ccc(C#N)c(C(F)(F)F)c6)C(=O)C5(C)C)CC4)C[C@@H]3C(F)(F)F)c21` (stereo partly drawn) [Cmpd 14, 2-((R)-4-(2-((trans-4-(3-(4-Cyano-3-(trifluoromethyl)phenyl)-5,5-dimethyl-4-oxo-2-thioxoimidazolidin-1-yl)cyclohexyl)oxy)ethyl)-2-(trifluoromethyl)piperazin-1-yl)-N-(3-(2,6-dioxopiperidin-3-yl)-1-methyl-1H-indazol-7-yl)acetamide hydrochloride], the DC50 was less than 2 nM and the remaining activity at up to 5 µM is 0 to 25%.
